Experimental data published in PubChem BioAssay AID1963966 (Molecular Pharmacology Branch, DTP, NCI, 2024).

Tested on: 935938-334-R-J1-PDC spheroids with HUVEC/MSC, viability
Test: Anticancer human tumor 935938-334-R-J1-PDC patient-derived small intestine adenocarcinoma cell line growth inhibition [PI3K]
Conditions: for IC50: curve of first compound; for viability, T/C: stronger effect = lower value
Outline: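 Agents were dosed from a top concentration near clinical Cmax (otherwise 10 microM) in half-log decrements, alone or combined with PI3K inhibitors. The spheroids contain tumor cells plus endothelial (HUVEC) and MSC stroma; viability is measured.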

[1] = second compound 0.0316 µM, first compound 0.0316 µM
[2] = second compound 0.0316 µM, first compound 0.1 µM
[3] = second compound 0.0316 µM, first compound 0.316 µM
[4] = second compound 0.0316 µM, first compound 1 µM
[5] = second compound 0.0316 µM, first compound 3.16 µM
[6] = second compound 0.0316 µM, first compound 10 µM
[7] = second compound 0.1 µM, first compound 0.0316 µM
[8] = second compound 0.1 µM, first compound 0.1 µM
[9] = second compound 0.1 µM, first compound 0.316 µM
[10] = second compound 0.1 µM, first compound 1 µM
[11] = second compound 0.1 µM, first compound 3.16 µM
[12] = second compound 0.1 µM, first compound 10 µM
[13] = second compound 0.316 µM, first compound 0.0316 µM
[14] = second compound 0.316 µM, first compound 0.1 µM
[15] = second compound 0.316 µM, first compound 0.316 µM
[16] = second compound 0.316 µM, first compound 1 µM
[17] = second compound 0.316 µM, first compound 3.16 µM
[18] = second compound 0.316 µM, first compound 10 µM
[19] = second compound 1 µM, first compound 0.0316 µM
[20] = second compound 1 µM, first compound 0.1 µM
[21] = second compound 1 µM, first compound 0.316 µM
[22] = second compound 1 µM, first compound 1 µM
[23] = second compound 1 µM, first compound 3.16 µM
[24] = second compound 1 µM, first compound 10 µM
[25] = second compound 3.16 µM, first compound 0.0316 µM
[26] = second compound 3.16 µM, first compound 0.1 µM
[27] = second compound 3.16 µM, first compound 0.316 µM
[28] = second compound 3.16 µM, first compound 1 µM
[29] = second compound 3.16 µM, first compound 3.16 µM
[30] = second compound 3.16 µM, first compound 10 µM
[31] = second compound 10 µM, first compound 0.0316 µM
[32] = second compound 10 µM, first compound 0.1 µM
[33] = second compound 10 µM, first compound 0.316 µM
[34] = second compound 10 µM, first compound 1 µM
[35] = second compound 10 µM, first compound 3.16 µM
[36] = second compound 10 µM, first compound 10 µM
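Note: compound exposure lasted seven days before viability was read.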
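Throughout, for viability, T/C: percent of vehicle DMSO treated spheroid viability so 100% = untreated.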

Compound: C#Cc1c(F)ccc2cc(O)cc(-c3ncc4c(N5CC6CCC(C5)N6)nc(OCC56CCCN5CC(F)C6)nc4c3F)c12 (stereo not given) + Cc1nc(NC(=O)N2CCCC2C(N)=O)sc1-c1ccnc(C(C)(C)C(F)(F)F)c1
- IC50 (second compound 0.0316 µM): 987 nM
- IC50 (second compound 0.1 µM): 1870 nM
- IC50 (second compound 0.316 µM): 1490 nM
- IC50 (second compound 1 µM): 528 nM
- IC50 (second compound 3.16 µM): 48.9 nM
- IC50 (second compound 10 µM): < 31.6 nM
- viability, T/C [1]: 101%
- viability, T/C [2]: 89.2%
- viability, T/C [3]: 107%
- viability, T/C [4]: 49.4%
- viability, T/C [5]: 36.8%
- viability, T/C [6]: 32.7%
- viability, T/C [7]: 88.8%
- viability, T/C [8]: 73.6%
- viability, T/C [9]: 79%
- viability, T/C [10]: 60%
- viability, T/C [11]: 40.7%
- viability, T/C [12]: 27.6%
- viability, T/C [13]: 94.4%
- viability, T/C [14]: 80%
- viability, T/C [15]: 77.3%
- viability, T/C [16]: 59.5%
- viability, T/C [17]: 33.4%
- viability, T/C [18]: 29.4%
- viability, T/C [19]: 76.5%
- viability, T/C [20]: 85.9%
- viability, T/C [21]: 60.4%
- viability, T/C [22]: 35.4%
- viability, T/C [23]: 29.3%
- viability, T/C [24]: 21.1%
- viability, T/C [25]: 51.5%
- viability, T/C [26]: 46.5%
- viability, T/C [27]: 40.7%
- viability, T/C [28]: 30.8%
- viability, T/C [29]: 25.7%
- viability, T/C [30]: 23.4%
- viability, T/C [31]: 47.8%
- viability, T/C [32]: 33.2%
- viability, T/C [33]: 36.8%
- viability, T/C [34]: 27.6%
- viability, T/C [35]: 17.3%
- viability, T/C [36]: 16%

Compound: C=CC(=O)N1CCN(c2nc(=O)n(-c3c(C)ccnc3C(C)C)c3nc(-c4c(O)cccc4F)c(F)cc23)C(C)C1 (stereo not given) + Cc1nc(NC(=O)N2CCCC2C(N)=O)sc1-c1ccnc(C(C)(C)C(F)(F)F)c1
- IC50 (second compound 0.0316 µM): > 10000 nM
- IC50 (second compound 0.1 µM): > 10000 nM
- IC50 (second compound 0.316 µM): > 10000 nM
- IC50 (second compound 1 µM): > 10000 nM
- IC50 (second compound 3.16 µM): > 10000 nM
- IC50 (second compound 10 µM): < 31.6 nM
- viability, T/C [1]: 73%
- viability, T/C [2]: 92.1%
- viability, T/C [3]: 88%
- viability, T/C [4]: 98.7%
- viability, T/C [5]: 85.7%
- viability, T/C [6]: 86.8%
- viability, T/C [7]: 79.2%
- viability, T/C [8]: 76.2%
- viability, T/C [9]: 91.2%
- viability, T/C [10]: 60.7%
- viability, T/C [11]: 79.5%
- viability, T/C [12]: 95.8%
- viability, T/C [13]: 91%
- viability, T/C [14]: 96%
- viability, T/C [15]: 74.2%
- viability, T/C [16]: 69.5%
- viability, T/C [17]: 72.7%
- viability, T/C [18]: 92.3%
- viability, T/C [19]: 68.4%
- viability, T/C [20]: 64%
- viability, T/C [21]: 60.5%
- viability, T/C [22]: 68.7%
- viability, T/C [23]: 77.3%
- viability, T/C [24]: 47.4%
- viability, T/C [25]: 48.4%
- viability, T/C [26]: 55.1%
- viability, T/C [27]: 45.1%
- viability, T/C [28]: 57.1%
- viability, T/C [29]: 64.7%
- viability, T/C [30]: 42.5%
- viability, T/C [31]: 43.2%
- viability, T/C [32]: 40.1%
- viability, T/C [33]: 47.3%
- viability, T/C [34]: 36.5%
- viability, T/C [35]: 35%
- viability, T/C [36]: 32.2%

Compound: CC(Cn1ccc(-c2ccc(C#N)c(Cl)c2)n1)NC(=O)c1cc(C(C)O)[nH]n1 (stereo not given) + Cc1nc(NC(=O)N2CCCC2C(N)=O)sc1-c1ccnc(C(C)(C)C(F)(F)F)c1
- IC50 (second compound 0.0316 µM): > 10000 nM
- IC50 (second compound 0.1 µM): > 10000 nM
- IC50 (second compound 0.316 µM): > 10000 nM
- IC50 (second compound 1 µM): > 10000 nM
- IC50 (second compound 3.16 µM): 400 nM
- IC50 (second compound 10 µM): < 31.6 nM
- viability, T/C [1]: 81.8%
- viability, T/C [2]: 101%
- viability, T/C [3]: 89.8%
- viability, T/C [4]: 91%
- viability, T/C [5]: 104%
- viability, T/C [6]: 78.3%
- viability, T/C [7]: 109%
- viability, T/C [8]: 72.3%
- viability, T/C [9]: 99.4%
- viability, T/C [10]: 77.2%
- viability, T/C [11]: 97.6%
- viability, T/C [12]: 75.6%
- viability, T/C [13]: 81.8%
- viability, T/C [14]: 81.6%
- viability, T/C [15]: 58.5%
- viability, T/C [16]: 82%
- viability, T/C [17]: 75.5%
- viability, T/C [18]: 84.8%
- viability, T/C [19]: 79.2%
- viability, T/C [20]: 79.6%
- viability, T/C [21]: 62.3%
- viability, T/C [22]: 65%
- viability, T/C [23]: 64.6%
- viability, T/C [24]: 47.7%
- viability, T/C [25]: 62.7%
- viability, T/C [26]: 61%
- viability, T/C [27]: 50.3%
- viability, T/C [28]: 44.3%
- viability, T/C [29]: 59.4%
- viability, T/C [30]: 43.9%
- viability, T/C [31]: 46.3%
- viability, T/C [32]: 42.6%
- viability, T/C [33]: 52.3%
- viability, T/C [34]: 51.8%
- viability, T/C [35]: 44.3%
- viability, T/C [36]: 40%

Compound: CC1(C)CCC(Nc2ncc(C(F)(F)F)c(-c3c[nH]c4c(P(C)(C)=O)c(C#N)ccc34)n2)CN1 (stereo not given) + Cc1nc(NC(=O)N2CCCC2C(N)=O)sc1-c1ccnc(C(C)(C)C(F)(F)F)c1
- IC50 (second compound 0.0316 µM): < 31.6 nM
- IC50 (second compound 0.1 µM): < 31.6 nM
- IC50 (second compound 0.316 µM): < 31.6 nM
- IC50 (second compound 1 µM): < 31.6 nM
- IC50 (second compound 3.16 µM): < 31.6 nM
- IC50 (second compound 10 µM): < 31.6 nM
- viability, T/C [1]: 31.4%
- viability, T/C [2]: 24.9%
- viability, T/C [3]: 39.4%
- viability, T/C [4]: 33.7%
- viability, T/C [5]: 30.8%
- viability, T/C [6]: 5.69%
- viability, T/C [7]: 33.6%
- viability, T/C [8]: 34.4%
- viability, T/C [9]: 31.6%
- viability, T/C [10]: 32.3%
- viability, T/C [11]: 36.3%
- viability, T/C [12]: 6.9%
- viability, T/C [13]: 34.6%
- viability, T/C [14]: 34.5%
- viability, T/C [15]: 26.2%
- viability, T/C [16]: 29.6%
- viability, T/C [17]: 27.6%
- viability, T/C [18]: 6.74%
- viability, T/C [19]: 38.3%
- viability, T/C [20]: 26.2%
- viability, T/C [21]: 23.7%
- viability, T/C [22]: 20.8%
- viability, T/C [23]: 23.7%
- viability, T/C [24]: 4.15%
- viability, T/C [25]: 24.6%
- viability, T/C [26]: 22.6%
- viability, T/C [27]: 24.5%
- viability, T/C [28]: 25.2%
- viability, T/C [29]: 25.2%
- viability, T/C [30]: 3.91%
- viability, T/C [31]: 25.6%
- viability, T/C [32]: 23.8%
- viability, T/C [33]: 26.2%
- viability, T/C [34]: 24.7%
- viability, T/C [35]: 19.9%
- viability, T/C [36]: 2.1%

Compound: Cn1nccc1Nc1nccc(-c2ccn(C(CO)c3ccc(Cl)c(F)c3)c(=O)c2)n1 (stereo not given) + Cc1nc(NC(=O)N2CCCC2C(N)=O)sc1-c1ccnc(C(C)(C)C(F)(F)F)c1
- IC50 (second compound 0.0316 µM): 805 nM
- IC50 (second compound 0.1 µM): 973 nM
- IC50 (second compound 0.316 µM): 315 nM
- IC50 (second compound 1 µM): 211 nM
- IC50 (second compound 3.16 µM): 46.8 nM
- IC50 (second compound 10 µM): < 31.6 nM
- viability, T/C [1]: 92.1%
- viability, T/C [2]: 80.5%
- viability, T/C [3]: 61%
- viability, T/C [4]: 48.5%
- viability, T/C [5]: 36.2%
- viability, T/C [6]: 31.6%
- viability, T/C [7]: 100%
- viability, T/C [8]: 73.5%
- viability, T/C [9]: 62%
- viability, T/C [10]: 53.4%
- viability, T/C [11]: 38.6%
- viability, T/C [12]: 25.1%
- viability, T/C [13]: 94.1%
- viability, T/C [14]: 71%
- viability, T/C [15]: 48.2%
- viability, T/C [16]: 39.3%
- viability, T/C [17]: 25%
- viability, T/C [18]: 25.6%
- viability, T/C [19]: 62.2%
- viability, T/C [20]: 75.7%
- viability, T/C [21]: 39.7%
- viability, T/C [22]: 26%
- viability, T/C [23]: 25.8%
- viability, T/C [24]: 19.2%
- viability, T/C [25]: 50.6%
- viability, T/C [26]: 51.3%
- viability, T/C [27]: 33.1%
- viability, T/C [28]: 37.4%
- viability, T/C [29]: 20.8%
- viability, T/C [30]: 18.7%
- viability, T/C [31]: 43.9%
- viability, T/C [32]: 48%
- viability, T/C [33]: 28.6%
- viability, T/C [34]: 22.2%
- viability, T/C [35]: 20.8%
- viability, T/C [36]: 19.9%
